Assays:
Type in all cases: binding
Settings in all cases: Compound Concentration 10 µM
[1] = target: T1, panel of 442 kinases (Homo sapiens, UniProt Q04912)
T1 construct: purchased KINOMEscan
Excerpt: (§1) We assessed the selectivity of members of this scaffold using the KINOMEscan methodology across a near comprehensive panel of 442 kinases [[18,27]].

[2] = target: T2, panel of 442 kinases (Homo sapiens, UniProt P42336, Q546K)
T2 construct: purchased KINOMEscan
Excerpt: as §1

[3] = target: T3, panel of 442 kinases (Homo sapiens, UniProt P20794)
T3 construct: purchased KINOMEscan
T3 sequence (P20794 1-623): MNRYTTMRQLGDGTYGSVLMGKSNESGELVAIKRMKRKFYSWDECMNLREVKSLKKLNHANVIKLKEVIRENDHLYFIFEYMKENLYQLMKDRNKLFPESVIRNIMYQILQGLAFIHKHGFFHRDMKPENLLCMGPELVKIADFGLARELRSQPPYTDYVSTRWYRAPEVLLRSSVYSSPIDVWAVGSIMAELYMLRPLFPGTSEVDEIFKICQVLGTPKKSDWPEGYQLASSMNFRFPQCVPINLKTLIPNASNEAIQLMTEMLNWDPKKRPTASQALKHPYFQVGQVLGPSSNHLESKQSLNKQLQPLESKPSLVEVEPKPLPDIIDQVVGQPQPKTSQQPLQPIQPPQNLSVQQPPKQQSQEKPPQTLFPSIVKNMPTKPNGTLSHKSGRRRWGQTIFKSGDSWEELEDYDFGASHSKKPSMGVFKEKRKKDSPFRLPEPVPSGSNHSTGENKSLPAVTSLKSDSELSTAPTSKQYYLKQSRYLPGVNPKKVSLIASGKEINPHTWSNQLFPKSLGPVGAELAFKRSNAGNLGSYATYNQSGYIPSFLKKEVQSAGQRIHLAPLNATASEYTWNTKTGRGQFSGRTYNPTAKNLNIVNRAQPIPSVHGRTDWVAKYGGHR
Excerpt: as §1

T1 sequence (Q04912 25-1400): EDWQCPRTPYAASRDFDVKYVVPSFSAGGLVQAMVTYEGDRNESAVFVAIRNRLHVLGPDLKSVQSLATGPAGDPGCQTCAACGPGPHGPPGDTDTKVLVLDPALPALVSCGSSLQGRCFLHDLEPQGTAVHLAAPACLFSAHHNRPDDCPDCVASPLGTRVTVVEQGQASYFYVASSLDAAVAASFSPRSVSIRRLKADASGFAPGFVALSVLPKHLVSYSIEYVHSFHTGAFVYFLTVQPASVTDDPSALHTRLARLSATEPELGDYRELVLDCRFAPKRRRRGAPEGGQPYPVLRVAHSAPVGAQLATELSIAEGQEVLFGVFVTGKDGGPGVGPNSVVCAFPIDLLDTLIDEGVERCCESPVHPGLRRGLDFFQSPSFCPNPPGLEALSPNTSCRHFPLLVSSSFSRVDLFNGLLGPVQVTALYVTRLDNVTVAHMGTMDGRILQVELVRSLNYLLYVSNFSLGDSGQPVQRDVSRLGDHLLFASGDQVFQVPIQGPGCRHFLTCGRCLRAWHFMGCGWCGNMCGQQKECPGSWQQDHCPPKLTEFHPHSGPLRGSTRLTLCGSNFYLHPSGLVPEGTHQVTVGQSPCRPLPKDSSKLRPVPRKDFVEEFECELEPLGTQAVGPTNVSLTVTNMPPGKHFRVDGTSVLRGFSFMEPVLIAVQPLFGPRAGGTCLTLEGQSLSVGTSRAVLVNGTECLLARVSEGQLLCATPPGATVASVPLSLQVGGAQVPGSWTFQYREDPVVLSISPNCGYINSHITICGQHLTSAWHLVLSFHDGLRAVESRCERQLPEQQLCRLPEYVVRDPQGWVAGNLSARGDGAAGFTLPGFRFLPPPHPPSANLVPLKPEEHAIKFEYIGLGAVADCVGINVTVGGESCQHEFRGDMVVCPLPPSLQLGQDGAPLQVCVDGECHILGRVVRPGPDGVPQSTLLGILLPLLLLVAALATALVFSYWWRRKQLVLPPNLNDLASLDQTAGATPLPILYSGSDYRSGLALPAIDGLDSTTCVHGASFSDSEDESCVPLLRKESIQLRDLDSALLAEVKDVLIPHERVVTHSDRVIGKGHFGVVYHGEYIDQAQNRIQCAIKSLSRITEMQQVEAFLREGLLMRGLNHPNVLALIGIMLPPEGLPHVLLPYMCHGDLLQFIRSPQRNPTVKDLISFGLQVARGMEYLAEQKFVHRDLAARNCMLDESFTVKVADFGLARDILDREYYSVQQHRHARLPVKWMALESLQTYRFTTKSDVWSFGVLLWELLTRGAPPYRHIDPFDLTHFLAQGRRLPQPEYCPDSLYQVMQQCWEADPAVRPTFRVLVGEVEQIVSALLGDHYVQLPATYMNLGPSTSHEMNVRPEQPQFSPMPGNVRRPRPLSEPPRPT
T2 sequence (P42336 whole entry Q546K): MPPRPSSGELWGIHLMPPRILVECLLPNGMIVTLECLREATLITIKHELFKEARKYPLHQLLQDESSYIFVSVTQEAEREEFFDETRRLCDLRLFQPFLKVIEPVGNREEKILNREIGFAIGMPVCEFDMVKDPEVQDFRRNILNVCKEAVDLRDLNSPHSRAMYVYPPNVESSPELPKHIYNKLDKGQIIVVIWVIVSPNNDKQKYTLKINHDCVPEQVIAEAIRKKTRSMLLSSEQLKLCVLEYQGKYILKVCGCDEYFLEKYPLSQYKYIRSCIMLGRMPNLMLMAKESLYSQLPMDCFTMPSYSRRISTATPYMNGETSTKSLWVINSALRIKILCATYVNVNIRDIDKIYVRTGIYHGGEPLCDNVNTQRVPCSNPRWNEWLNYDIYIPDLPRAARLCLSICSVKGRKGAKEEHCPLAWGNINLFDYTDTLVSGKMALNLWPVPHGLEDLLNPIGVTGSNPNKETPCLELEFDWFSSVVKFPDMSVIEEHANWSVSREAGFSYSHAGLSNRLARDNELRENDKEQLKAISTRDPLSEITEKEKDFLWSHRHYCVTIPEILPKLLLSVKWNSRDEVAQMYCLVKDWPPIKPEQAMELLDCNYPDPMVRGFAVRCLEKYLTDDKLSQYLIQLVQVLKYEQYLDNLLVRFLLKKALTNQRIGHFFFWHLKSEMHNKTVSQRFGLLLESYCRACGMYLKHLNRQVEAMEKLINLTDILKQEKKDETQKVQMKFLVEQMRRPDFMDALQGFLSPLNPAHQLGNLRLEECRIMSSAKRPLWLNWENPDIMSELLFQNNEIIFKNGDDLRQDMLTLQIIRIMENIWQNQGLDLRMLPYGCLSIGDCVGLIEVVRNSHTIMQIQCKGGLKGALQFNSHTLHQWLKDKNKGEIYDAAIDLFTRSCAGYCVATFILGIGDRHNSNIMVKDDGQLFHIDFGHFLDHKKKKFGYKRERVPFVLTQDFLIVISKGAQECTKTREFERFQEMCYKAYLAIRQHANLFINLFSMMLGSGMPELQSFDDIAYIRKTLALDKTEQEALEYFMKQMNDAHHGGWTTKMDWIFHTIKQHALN

Row | Compound | KINOMEscan: MST1R [1] | KINOMEscan: PIK3CA(Q546K) [2] | KINOMEscan: MAK [3]
1 | COc1cc(C(=O)N2CCC(N3CCN(C)CC3)CC2)ccc1Nc1ncc2c(n1)N(C)c1ccccc1C(=O)N2C [15 (LRRK2-IN-1)] | 98 | 91 | 72
2 | CCOc1cc(C(=O)N2CCC(N3CCN(C)CC3)CC2)ccc1Nc1ncc2c(n1)N(C1CCCC1)c1ccccc1C(=O)N2C [Compound 26] | 100 | 99 | 100
3 | COc1cc(C(=O)N2CCC(N3CCN(C)CC3)CC2)ccc1Nc1ncc2c(n1)N1CCc3cccc(c31)C(=O)N2C [Compound 24] | – | 98 | 100
4 | COc1cc(C(=O)N2CCC(N3CCN(C)CC3)CC2)ccc1Nc1ncc2c(n1)N(C1CCCC1)c1ccccc1C(=O)N2C [Compound 25, 11-cyclopentyl-2-((2-methoxy-4-(4-(4-methylpiperazin-1-yl)piperidine-1-carbonyl)phenyl)amino)-5-methyl-5H-benzo[e]pyrimido[5,4-b][1,4]diazepin-6(11H)-one] | 100 | 100 | 100
